Key:
[1] = biological target: T1, human GRIN1 (transcript variant NR1-3) and GRIN2D expressed in Xenopus oocytes (Homo sapiens, UniProt O15399); test: NR2D oocyte potentiation assay (two-electrode voltage clamp); type: cell-based; settings: 10 uM test compound; glutamate and glycine 10 μM each; holding potential −40 mV
T1 construct: GenScript (GRIN2D synthesis) SC115601; host or cells: Xenopus oocytes injected with cRNA (1 GluN1 : 2 GluN2)
In short: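 Xenopus oocytes were defolliculated with collagenase, then injected with 50 nL of cRNA encoding human GluN1 (NR1-3 variant) and GluN2D mixed 1:2 and kept 72 h at 16° C. Two-electrode voltage clamp at −40 mV recorded currents; after 10 μM glutamate plus 10 μM glycine reached plateau, test compound was added until a new plateau formed.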

[2] = biological target: T2, human GRIN1 (variant NR1-3) and GRIN2D expressed in HEK293 cells (Homo sapiens, UniProt O15399); test: GluN2D PAM CIQ fluorescence assay (Fluo-8 calcium, FDSS 6000); type: cell-based; settings: relative to CIQ (100 uM) = 100%, read-out: NR2D Percent CIQ Avg Max Measured Effect
T2 construct: GenScript (GRIN2D synthesis) SC115601; host or cells: HEK293
T2 sequence (O15399 28-1336, other chains not shown): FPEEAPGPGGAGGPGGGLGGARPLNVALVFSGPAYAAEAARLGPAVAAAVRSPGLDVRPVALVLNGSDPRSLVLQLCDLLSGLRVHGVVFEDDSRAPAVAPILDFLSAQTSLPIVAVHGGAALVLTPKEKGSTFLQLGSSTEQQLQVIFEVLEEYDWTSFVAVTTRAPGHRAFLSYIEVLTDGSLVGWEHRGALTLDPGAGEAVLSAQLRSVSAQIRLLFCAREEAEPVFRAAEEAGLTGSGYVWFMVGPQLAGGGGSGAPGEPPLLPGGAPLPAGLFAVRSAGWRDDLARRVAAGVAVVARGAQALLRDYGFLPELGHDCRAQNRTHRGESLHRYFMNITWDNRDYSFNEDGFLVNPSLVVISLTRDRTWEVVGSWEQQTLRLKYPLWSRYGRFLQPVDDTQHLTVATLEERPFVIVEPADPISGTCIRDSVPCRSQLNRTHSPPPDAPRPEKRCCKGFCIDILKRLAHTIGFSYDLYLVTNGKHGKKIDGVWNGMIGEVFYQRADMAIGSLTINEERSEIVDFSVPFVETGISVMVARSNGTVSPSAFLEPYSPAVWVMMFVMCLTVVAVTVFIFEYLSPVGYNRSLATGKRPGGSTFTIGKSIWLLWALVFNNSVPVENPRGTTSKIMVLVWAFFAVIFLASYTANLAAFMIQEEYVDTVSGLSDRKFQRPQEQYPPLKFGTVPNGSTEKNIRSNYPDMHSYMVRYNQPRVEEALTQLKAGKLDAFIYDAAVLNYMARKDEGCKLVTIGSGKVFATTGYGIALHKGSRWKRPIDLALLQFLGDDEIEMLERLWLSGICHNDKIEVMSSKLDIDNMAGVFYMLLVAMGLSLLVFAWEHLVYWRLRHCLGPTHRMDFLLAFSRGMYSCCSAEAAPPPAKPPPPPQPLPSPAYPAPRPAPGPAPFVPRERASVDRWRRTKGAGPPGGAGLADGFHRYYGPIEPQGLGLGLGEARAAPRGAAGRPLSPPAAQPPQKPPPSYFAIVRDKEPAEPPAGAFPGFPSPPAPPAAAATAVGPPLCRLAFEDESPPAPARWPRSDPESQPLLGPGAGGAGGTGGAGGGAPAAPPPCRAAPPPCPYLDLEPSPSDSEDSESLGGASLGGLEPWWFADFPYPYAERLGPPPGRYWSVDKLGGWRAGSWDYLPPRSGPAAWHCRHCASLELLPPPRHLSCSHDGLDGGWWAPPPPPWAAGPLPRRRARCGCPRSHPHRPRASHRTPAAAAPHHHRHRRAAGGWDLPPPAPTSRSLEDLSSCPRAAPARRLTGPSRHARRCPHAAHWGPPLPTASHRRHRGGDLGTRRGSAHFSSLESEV
Protocol: GluN2D PAM CIO Flourescence AssayHEK293 cells were transfected to express human GRIN1 (variant NR1-3, Origene, SKU #: SC115601, Rockville, Md.) and GRIN2D (NCBI locus NM_000836, sequence optimized and synthesized by GenScript) and grown as an adherent monolayer at 37° C., 5% CO2 in DMEM/Ham's F12+10% FBS (Hyclone SH3007.03T in the presence of 2.5 mM ARL-15896 (AdooQ Bioscience, Irvine Calif.). To prepare the cells for an experiment, they were rinsed with Dulbecco's PBS (Ca^2+ and Mg^2+ free) and detached from the flask with TrypLE™ Express (Life Technologies, Carlsbad, Calif.) using the manufacturer's recommended methods. Cells collected from the flask were washed twice in Ca^2+/Mg^2+-free Hanks Balanced Salt Solution+20 mM HEPES (HBSS), and counted and assessed for viability with trypan blue. Washed cells were then dye-loaded by resuspending in Fluo-8/AM calcium sensitive dye plus Component B (AAT Bioquest, Sunnyvale, Calif.) diluted in HBSS. To allow cells to take up fluo-8 dye, they were incubated in the dark for 15 min at 37° C., followed by 30 min at 22-25° C. After dye-loading, cells were washed and resuspended in HBSS and plated in 384-well plates (Falcon 353962; Corning, Big Flats, N.Y.) at 20,000-30,000 cells/well in a final volume of 25 μl/well. The cell plates were centrifuged at 200×g, for 2 minutes at 21° C., to create a monolayer of cells at the bottom of the wells.
To initiate an assay, 10 μl of test compound or buffer was added to each well of the cell plate and pre-incubated for 10 minutes in the dark. After 10 minutes, the cell plate was placed in a FDSS 6000 plate reader (Hamamatsu Photonics, Middlesex, N.J.); baseline fluorescence readings were collected for 20 seconds. Next, 25 μl of agonist solution (3 μM glutamate, 3 μM glycine, and 1 mM Ca^2+ in HBSS) was added and the change in fluorescence was recorded for 3 minutes.
Results were calculated by comparing the effects of test compounds to that of the literature standard GluN2C/D PAM CIQ (100 uM). The increase in fluorescence in the presence of CIQ minus the increase induced by glutamate+glycine alone was set to 100%. Responses induced by compounds that were larger than gain the presence of the standard concentration of CIQ were greater than 100% and lesser responses were less than 100%.

T1 sequence (O15399 28-1336, other chains not shown): as above

Row | SMILES | activation at 10 µM [1] [%] | Emax [2] [%]
1 | CC(C)(C)c1ncc(-c2nc3ccccn3c(=O)c2C#N)cn1 [Example 20, 2-(2-(tert-butyl)pyrimidin-5-yl)-4-oxo-4H-pyrido[1,2-a]pyrimidine-3-carbonitrile] | 100 to 500 | 100 to 200
2 | CC1CSc2nc(-c3cnc(C(C)(C)C)nc3)c(C#N)c(=O)n2C1 (centres unmarked) [Example 49, 8-(2-(tert-butyl)pyrimidin-5-yl)-3-methyl-6-oxo-3,4-dihydro-2H,6H-pyrimido[2,1-b][1,3]thiazine-7-carbonitrile] | > 1000 | > 200
3 | CC(C)(C)c1ccc(-c2nc3n(c(=O)c2C#N)CC2(COC2)CS3)cc1 [Example 204, 8′-(4-tert-butylphenyl)-6′-oxo-4′,6′-dihydro-2′H-spiro[oxetane-3,3′-pyrimido[2,1-b][1,3]thiazine]-7′-carbonitrile] | 10 to 100 | 10 to 50
4 | CN(C)C(=O)/N=c1/c(C#N)c(-c2ccc(C(C)(C)C)cc2)nc2n1CCCS2 [Example 42, (Z)-3-(8-(4-(tert-butyl)phenyl)-7-cyano-3,4-dihydro-2H,6H-pyrimido[2,1-b][1,3]thiazin-6-ylidene)-1,1-dimethylurea] | 100 to 500 | 100 to 200

Source: patent US11807650B2, “NMDA receptor modulators and uses thereof” (Novartis AG, priority 2016, dated 2023)
